# Test results: patent publication EP4806445A1, “USE OF COMPOSITION FOR PREVENTING, ALLEVIATING OR TREATING DIABETIC KIDNEY DISEASE COMPRISING ZINC SALT AND CYCLO-HISPRO AS ACTIVE INGREDIENTS” (Novmetapharma Co., Ltd., priority 2023, dated 2025)
# Tests used:
# Format in all cases: in vivo
# KKAy mice [1] = assay: Measurement of urine albumin (albuminuria) in diabetic kidney disease model; settings: week 16 of administration; for albuminuria: 24-hour urine, losartan 20 mg/kg in drinking water, dapagliflozin 2 mg/kg, CycloZ 15 mg/kg oral daily, negative control 51.4; for decrease in albuminuria compared to the negative control group: same doses as E1
# Method: Five-week-old KKay mice were purchased from Clea, Japan, and as a normal control group, five-week-old C57BL6/J mice were purchased from Daehan Bio Link Co., Ltd. Breeding was performed under constant conditions (temperature: 22±2 °C, relative humidity: 55±10%, circadian cycle: 12 hours), and Purina mouse diet was used as feed and distilled water was used as drinking water. Mice were used in the experiment after a one-week adaptation period following purchase. Lorsartan used in the examples below was purchased from […], and dapagliflozin was purchased from Betapahrma. Metabolic cages were prepared using products from Jeongdo B&P Co., Ltd. Isoflurane, which is necessary for anesthesia and dissection of mice, was purchased from Hana Pharm Co., Ltd., and the RC2 Rodent Circuit Controller Anesthesia System from Vetequip was prepared. Phosphate buffered saline (PBS) was purchased from Hyclone. The KKAy animal model is known to have 10-50 times higher proteinuria (albuminuria) than the db/db animal model, and is reported to show the most severe mesangial matrix expansion among all models. […] The normal control group and the negative control group were orally administered the same amount of distilled water daily. [Table 1] At week 16 of administration, 24-hour urine was collected using a metabolic cage and centrifuged at 2,000 rpm for 10 minutes to remove suspended solids. Albumin was measured with a DCA vantage analyzer (Siemens) and DCA® Microalbumin/Creatinine Urine Test cartridge (Siemens) using urine diluted 1/10 with distilled water.
# KKAy mice [2] = assay: ACR, drug administration from severe condition, CycloZ, losartan and/or sitagliptin (Example 4); settings: week 9
# Method: (§1) At week 11 of administration, 24-hour urine was collected using a metabolic cage and centrifuged at 1,000 rpm for 5 minutes to remove suspended solids. Albumin was measured with a DCA vantage analyzer (Siemens) and DCA® Microalbumin/Creatinine Urine Test cartridge (Siemens) using urine diluted 1/2 with distilled water. Creatinine was measured using undiluted urine and a mouse creatinine assay kit (Crystalchem). The measured albumin (mg/dL) value was divided by the creatinine (g/dL) value to derive the ACR (mg/g) value.
# (§2) After breeding five-week-old KKAy mice of Example 1-1 for 6 weeks, urine was collected for 24 hours and ACR was measured using the same method as in Example 3-2. The groups were randomly divided as shown in Table 5 so that the average ACR values were the same, and then the drug was orally administered daily for 9 weeks from the age of 12 weeks as shown in Table 5. At this time, losartan was dissolved in drinking water to allow a daily intake of 20 mg/kg per subject, and the remaining drugs were orally administered daily.
# At week 9 of administration, 24-hour urine was collected using a metabolic cage, and ACR was measured using the same method as in Example 3-2.
# KKAy mice [3] = assay: ACR, drug administration from severe condition, CycloZ and/or metformin (Example 5); settings: week 12
# Method: as §1
# as §2, with “6” for “5”, “12” for “9”, “6.” for “5. At this time, losartan was dissolved in drinking water to allow a daily intake of 20 mg/kg per subject, and the remaining drugs were orally administered daily.”
# At week 12 of administration, 24-hour urine was collected using a metabolic cage, and ACR was measured using the same method as in Example 3-2.
# KKAy mice [4] = assay: ACR, drug administration from mild condition (Example 3-1/3-2); settings: administration from mild stage, week 11
# Method: Five-week-old KKAy mice of Example 1-1 were pre-bred for one week and then divided into groups as shown in Table 1 so that the average body weights were the same. The control group was orally administered distilled water for 11 weeks, while Group 1 was orally administered 15 mg/kg of CycloZ, Group 2 was orally administered 10 mg/kg of sitagliptin, and Group 3 was orally administered 10 mg/kg of sitagliptin + 15 mg/kg of CycloZ daily for the same period.
# as §1
# KKAy mice [5] = assay: ACR, drug administration from severe condition, CycloZ and/or sitagliptin (Example 3-3/3-4); settings: week 11
# Method: as §1
# as §2, with “4” for “5”, “11” for “9”, “4.” for “5. At this time, losartan was dissolved in drinking water to allow a daily intake of 20 mg/kg per subject, and the remaining drugs were orally administered daily.”
# At week 11 of administration, 24-hour urine was collected using a metabolic cage, and ACR was measured using the same method as in Example 3-2.
# [6] = administration from severe stage
compound,measurement,setting,value
"CCOc1ccc(Cc2cc([C@@H]3O[C@H](CO)[C@@H](O)[C@H](O)[C@H]3O)ccc2Cl)cc1 [Dapagliflozin, dapagliflozin]",albuminuria,KKAy mice [1],31.1 mg/dL
same,decrease in albuminuria compared to the negative control group,KKAy mice [1],39.5%
"CCCCc1nc(Cl)c(CO)n1Cc1ccc(-c2ccccc2-c2nn[nH]n2)cc1 [Losartan, losartan]",ACR,"KKAy mice [2]; administration from severe stage (age 12 weeks), CycloZ 15 mg/kg, losartan 20 mg/kg in drinking water, sitagliptin 10 mg/kg, negative control 7,118","7,158 mg/g"
same,effect on alleviating ACR (result in words),KKAy mice [2]; [6],did not show a significant effect on alleviating ACR
same,albuminuria,KKAy mice [1],39.3 mg/dL
same,decrease in albuminuria compared to the negative control group,KKAy mice [1],23.5%
"CN(C)C(=N)N=C(N)N [Metformin, metformin]",ACR,"KKAy mice [3]; administration from severe stage (age 12 weeks), CycloZ 15 mg/kg, metformin 200 mg/kg oral daily, negative control 2,369","2,952 mg/g"
same,effect on alleviating ACR (result in words),KKAy mice [3]; [6],did not show a significant effect on alleviating ACR
"N[C@@H](CC(=O)N1CCn2c(nnc2C(F)(F)F)C1)Cc1cc(F)c(F)cc1F [Sitagliptin, sitagliptin]",ACR reduced compared to the control group,KKAy mice [4],~24%
same,ACR,"KKAy mice [4]; CycloZ 15 mg/kg, sitagliptin 10 mg/kg oral daily, negative control 6,379","4,852 mg/g"
same,ACR,"KKAy mice [5]; administration from severe stage (age 12 weeks), CycloZ 15 mg/kg, sitagliptin 10 mg/kg oral daily, negative control 4,450","2,301 mg/g"
same,ACR decrease compared to the negative control group,KKAy mice [5]; [6],48%
